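Grown in 96-well plates, cells were treated for 48 hours with each compound at five concentrations. Insufficient inhibition: endpoint recorded as highest concentration tested. TGI: total growth inhibition.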
Columns and labels:
Assay in all cases: growth of human tumour cells (NCI), 48 h
[1] = test system: ACHN renal
[2] = test system: EKVX NSCLC
[3] = test system: HOP-62 NSCLC
[4] = test system: LOX IMVI melanoma
[5] = test system: OVCAR-3 ovarian
[6] = test system: OVCAR-4 ovarian
[7] = test system: RPMI-8226 leukemia
[8] = test system: SK-MEL-5 melanoma
[9] = test system: SN12C renal
[10] = test system: SNB-19 CNS
[11] = test system: SW-620 colon
[12] = test system: UACC-62 melanoma

`O=P(CCOc1ccccc1OCCP(=O)(c1ccccc1)c1ccc2c(c1)OCCOCCOCCOCCO2)(c1ccccc1)c1ccc2c(c1)OCCOCCOCCOCCO2` (centres undefined) was tested, and the TGI [1] was > 100 µM, the TGI [2] was > 100 µM and the TGI [3] was > 100 µM. The TGI [4] was > 100 µM, the TGI [5] was > 100 µM and the TGI [6] was > 100 µM. For the same compound, the TGI [7] was > 100 µM, the TGI [8] was > 100 µM and the TGI [9] was > 100 µM. The TGI [10] was > 100 µM, the TGI [11] was > 100 µM and the TGI [12] was > 100 µM.

With `O=C1Nc2ccccc2/C1=C\c1c(-c2ccccc2)nc2n1CCS2` the TGI [1] was > 100 µM, the TGI [2] was 52 µM and the TGI [3] was > 100 µM. For the same compound, the TGI [4] was 38.6 µM, the TGI [5] was 41.8 µM and the TGI [6] was > 100 µM. The TGI [7] was 65.8 µM, the TGI [8] was 30.2 µM and the TGI [9] was 58.5 µM. For the same compound, the TGI [10] was 91 µM, the TGI [11] was > 100 µM and the TGI [12] was 27.4 µM.

For `Cn1nc(-c2ccccc2)c2c(-c3ccccc3)c3cc(Cl)ccc3nc21`, the TGI [1] was > 100 µM, the TGI [2] was > 100 µM and the TGI [3] was > 100 µM. The TGI [4] was > 100 µM, the TGI [5] was > 100 µM and the TGI [6] was > 100 µM. For the same compound, the TGI [7] was > 100 µM, the TGI [8] was > 100 µM and the TGI [9] was > 100 µM. The TGI [10] was > 100 µM, the TGI [11] was > 100 µM and the TGI [12] was > 100 µM.

For `O=C(O)C1=CN(c2ccncc2)C(c2ccco2)=CC1c1ccccc1[N+](=O)[O-]` (centres undefined), the TGI [1] was 3.59 µM, the TGI [2] was 23.8 µM and the TGI [3] was 32.9 µM. For the same compound, the TGI [4] was 3.85 µM, the TGI [5] was 21.2 µM and the TGI [6] was 28.2 µM. The TGI [7] was > 24.5 µM, the TGI [8] was > 49.6 µM and the TGI [9] was 29.1 µM. For the same compound, the TGI [10] was 27.8 µM, the TGI [11] was > 31.7 µM and the TGI [12] was 33.6 µM.

For `O=C(Cc1ccccc1)N/N=C(/c1nc2ccc([N+](=O)[O-])cc2[nH]c1=O)C(O)c1ccc(C(O)/C(=N/NC(=O)Cc2ccccc2)c2nc3ccc([N+](=O)[O-])cc3[nH]c2=O)cc1` (centres undefined), the TGI [1] was > 100 µM, the TGI [2] was > 100 µM and the TGI [3] was > 100 µM. The TGI [4] was > 100 µM, the TGI [5] was > 100 µM and the TGI [6] was > 100 µM. The TGI [7] was > 100 µM, the TGI [9] was > 100 µM and the TGI [10] was > 100 µM. For the same compound, the TGI [11] was > 100 µM and the TGI [12] was > 100 µM.
